“Also recorded” adds a separate entry of the source.
What was measured:
[1] = system: Marchigian Sardinian alcohol-preferring (msP) rats; experiment: Operant ethanol self-administration in msP rats; type: in vivo, rat; details: for operant responding for alcohol (10% ethanol self-administration), overall: oral 1 h before 30-min session, all doses tested (H0847 1, 3; H0816 3, 10; H0900 and H0860 3, 30 mg/kg)
Protocol: Training continued until stable baseline of alcohol responding was achieved. At this point, before initiation of treatments, rats were trained to gavage administration procedures for three consecutive days (pre-treatment phase) during which they received drug vehicle. At this point animals were tested for the effect of ghrelin antagonists on 10% (v/v) ethanol self-administration. Using a within-subject Latin square design, the first group of msP rats (N=12) was tested for the effect of H0847 (0.0, 1.0 and 3.0 mg/kg), while the second (N=12) was treated with H0816 (0.0, 3.0 and 10.0 mg/kg).
Once the experiment was finished, animals were left in their home cages for several days, in order to wash out the drugs. Then, the same rats were employed to test the remaining ghrelin antagonists compounds H0900 (0.0, 3.0 and 30.0 mg/kg) and H0860 (0.0, 3.0 and 30.0 mg/kg). Once a stable self-administration baseline was reached, treatments begun according to the same experimental procedures described for the previous drugs tested.
All the drugs (or vehicles) were administered orally 1 hour before the beginning of the operant session.
Male genetically selected alcohol-preferring Marchigian Sardinian (msP) rats were used (N=24). At the time of the experiments their body weight ranged between 350 and 400 g. They were housed 4 per cages in a room with a reverse 12:12 h light/dark cycle (lights off at 9:30 a.m.), temperature of 20-22° C. and humidity of 45-55%. Rats were offered free access to tap water and food pellets (4RF18, Mucedola, Settimo Milanese, Italy). All the procedures were conducted in adherence with the European Community Council Directive for Care and Use of Laboratory Animals and the National Institutes of Health Guide for the Care and Use of Laboratory Animals.
75 mg of each H0900 and H0860 were accurately weighed and suspended in 10 ml of 0.5% carboxymethyl cellulose sodium salt solution (CMC, Sigma-Aldrich Cat. C4888, lot 120M0216V). The lower dose solution was prepared by dilution of 30 mg/ml suspension with 0.5% CMC solution.
37.5 mg of H0816 were accurately weighed and suspended in 15 ml of 0.5% carboxymethyl cellulose sodium salt solution (CMC, Sigma-Aldrich Cat. C4888, lot 120M0216V). The lower dose solution was prepared by dilution of mg/ml suspension with 0.5% CMC solution.
11.25 mg of H0847 were accurately weighed and suspended in 15 ml of 0.5% carboxymethyl cellulose sodium salt solution (CMC, Sigma-Aldrich Cat. C4888, lot 120M0216V). The lower dose solution was prepared by dilution of mg/ml suspension with 0.5% CMC solution.
Suspensions were prepared freshly on test day. Vehicle was composed of a solution of 0.5% carboxymethyl cellulose sodium salt and was prepared by dissolving 1 g of CMC in 200 ml of distilled water. Vehicle and drugs were administered by gavage in a volume of 4 ml/kg of body weight 1 hour before the access to 10% alcohol solution. 10% (v/v) ethanol solution was prepared every two days by diluting 95% (v/v) ethanol solution (F.L. CARSETTI s.n.c-CAMERINO) in drinkable water.
The self-administration stations consisted of operant conditioning chambers (Med Associate, Inc) enclosed in sound-attenuating, ventilated environmental cubicles. Each chamber was equipped with a drinking reservoir (volume capacity: […]) positioned 4 cm above the grid floor in the centre of the front panel of the chamber, two retractable levers located 3 cm (one to the right and the other to the left) of the drinking receptacle and a white cue light located 6 cm above the lever. […] An IBM-compatible computer controlled the delivery of fluids (activation of syringe pump), presentation of visual stimuli and recording of the behavioral data.
Using operant self-administration chambers (Med Associates), msP rats were trained to lever press for 10% alcohol (v/v) until stable baseline of responding were achieved. 16 self-administration training sessions were carried out to train the animals. […]

GHSR1a = biological target: T1, GHSR1a (Homo sapiens, UniProt Q92847); experiment: Calcium FLIPR assay, GHSR-1a agonism; type: cell-based; details: HEK293/GHSR1a cells
T1 construct: expressed in transfected cells; host or cells: HEK293
T1 sequence (Q92847 whole entry): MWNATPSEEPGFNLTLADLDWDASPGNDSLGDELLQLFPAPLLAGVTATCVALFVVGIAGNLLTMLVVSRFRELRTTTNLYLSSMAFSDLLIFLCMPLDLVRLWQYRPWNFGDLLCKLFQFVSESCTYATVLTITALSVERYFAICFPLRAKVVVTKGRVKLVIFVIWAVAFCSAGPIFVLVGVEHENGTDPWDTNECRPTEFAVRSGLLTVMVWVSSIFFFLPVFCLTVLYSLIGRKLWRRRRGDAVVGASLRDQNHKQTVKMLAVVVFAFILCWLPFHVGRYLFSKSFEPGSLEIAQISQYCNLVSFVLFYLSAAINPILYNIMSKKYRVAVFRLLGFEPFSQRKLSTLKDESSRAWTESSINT
Outline: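 Calcium flux measured by FLIPR in GHSR1a-expressing HEK293 cells after 30-60 min dye preloading. Compound was added at t=20 sec, alone for agonism or with ghrelin (10 nM) for antagonism, and fluorescence recorded for 2 minutes. EC50 and IC50 were estimated from dose-response data.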

[2] = 3 mg/kg oral 1 h before session
[3] = 30 mg/kg oral 1 h before session

Structure (SMILES)	alcohol self-administration, post hoc [1, 2]	alcohol self-administration, post hoc [1, 3]	operant responding for alcohol (10% ethanol self-administration), overall [1]	EC50 (GHSR1a) [µM]
CC[C@H](NC(=O)N(C)C1CCN(C)CC1)c1ccc(-c2cnccn2)c(Cl)c1Cl [Compound H0860, (S)-3-(1-(2,3-dichloro-4-(pyrazin-2-yl)phenyl)propyl)-1-methyl-1-(1-methylpiperidin-4-yl)urea]	only the higher dose (30 mg/kg) reduced ethanol self-administration	significant reduction of alcohol self-administration	significantly reduced operant responding for alcohol; also recorded: statistically significant decrease in ethanol self-administration	> 30
CN1CCC(N(C)C(=O)N[C@H](c2ccc(-c3cnccn3)c(Cl)c2Cl)C(F)(F)F)CC1 [Compound H0900, (R)-3-(1-(2,3-dichloro-4-(pyrazin-2-yl)phenyl)-2,2,2-trifluoroethyl)-1-methyl-1-(1-methylpiperidin-4-yl)urea]	significant reduction of alcohol self-administration	significant reduction of alcohol self-administration	significantly reduced operant responding for alcohol; also recorded: statistically significant decrease in ethanol self-administration	> 30
C[C@H](NC(=O)N(C)C1CCN(C)CC1)c1ccc(-c2cncc(F)n2)c(Cl)c1Cl [Compound H0847, (S)-3-(1-(2,3-dichloro-4-(6-fluoropyrazin-2-yl)phenyl)ethyl)-1-methyl-1-(1-methylpiperidin-4-yl)urea]			had no effect on operant responding for alcohol; also recorded: had no effect on ethanol responses	> 30
C[C@H](NC(=O)N(C)C1CCN(C)CC1)c1ccc(-c2cnccn2)c(Cl)c1Cl [Compound H0816, (S)-3-(1-(2,3-dichloro-4-(pyrazin-2-yl)phenyl)ethyl)-1-methyl-1-(1-methylpiperidin-4-yl)urea]			had no effect on operant responding for alcohol; also recorded: had no effect on ethanol responses	> 30
